Reference: patent US11744830B2, “Ameliorative agent for cytokine release syndrome and so on” (TORII PHARMACEUTICAL CO., LTD., priority 2018, dated 2023)

Experiments:
Assay type in all cases: cell-based, human
[1] = system: OPN production from CD14^+ cells; assay: LPS stimulation-induced OPN production in CD14^+ cells; details: LPS
Description: (§1) Cryopreserved PBMCs were quickly thawed in a 37° C. thermostat and added to a tube containing medium. After centrifugation (at room temperature at 300 g for 10 minutes) to remove the supernatant, the cells were suspended again in the medium, followed by counting the number of viable cells. The cell suspension was centrifuged (at room temperature at 300 g for 10 minutes) to remove the supernatant, followed by addition of MACS Buffer to suspend the cells, to which Human CD14 MicroBeads were further added. After being allowed to stand on ice for 15 minutes, the cell suspension was diluted with MACS Buffer and centrifuged (at room temperature at 300 g for 10 minutes) to remove the supernatant. MACS Buffer was added to the tube, and the cells were suspended and then applied to a separatory column to separate CD14^+ cells. The CD14^+ cell fraction was diluted with the medium and then centrifuged (at room temperature at 300 g for 10 minutes). The supernatant was removed and the cells were suspended in the medium (1 mL), followed by counting the number of viable cells. The cell suspension was adjusted with the medium to 2.4×10^5 or 3×10^5 cells/mL and seeded in a 96-well plate (2.4×10^4 cells/well), which was then allowed to stand in a CO2 incubator for 1 to 2 hours.
The collected culture supernatants were quantified for OPN using Human OPN DuoSet ELISA.

[2] = system: IL-1β production in CD14^+ cells; assay: LPS stimulation-induced IL-1β production in CD14^+ cells; details: LPS
Description: as §1
The culture supernatants collected in 1.2.10 were quantified for IL-1β using Human IL-1β DuoSet ELISA.

[3] = system: IL-18 production from LPS-pretreated CD14^+ cells; assay: ATP stimulation-induced IL-18 production from LPS-pretreated CD14^+ cells; details: LPS-pretreated CD14^+ cells, ATP
Description: Cryopreserved PBMCs were quickly thawed in a 37° C. thermostat and added to a tube containing medium. After centrifugation (at room temperature at 300 g for 10 minutes) to remove the supernatant, the cells were suspended again in the medium, followed by counting the number of viable cells. The cell suspension was centrifuged (at room temperature at 300 g for 10 minutes) to remove the supernatant, followed by addition of MACS Buffer to suspend the cells, to which Human CD14 MicroBeads were further added. After being allowed to stand on ice for 15 minutes, the cell suspension was diluted with MACS Buffer and centrifuged (at room temperature at 300 g for 10 minutes) to remove the supernatant.
MACS Buffer was added to the tube, and the cells were suspended and then applied to a separatory column to separate CD14^+ cells. The CD14^+ cell fraction was diluted with the medium and then centrifuged (at room temperature at 300 g for 10 minutes). The supernatant was removed and the cells were suspended in the medium (1 mL), followed by counting the number of viable cells. The cell suspension adjusted with the medium to 2×10^6 cells/mL was seeded in a 96-well plate (1×10^5 cells/well) and allowed to stand in a CO2 incubator for 1 to 2 hours. […] The cells were then stimulated with LPS (final concentration: 500 ng/mL) for 6 hours at 37° C. and an ATP solution (final concentration: 5 mM) was added thereto, and the 96-well plate was further allowed to stand in a CO2 incubator for 2 hours to collect the culture supernatants.
The collected culture supernatants were quantified for IL-18 using Human IL-18 DuoSet ELISA.

[4] = system: VEGF production from macrophages; assay: LPS stimulation-induced VEGF production in macrophages; details: Macrophages, LPS
Description: CD14^+ cells were cultured in 20 ng/mL M-CSF-containing RPMI medium at 37° C. for 5 days to induce differentiation into macrophages (during which the medium was replaced once every two days with fresh 20 ng/mL M-CSF-containing RPMI medium). […] The macrophages were then stimulated with LPS (final concentration: 100 ng/mL) or RPMI medium alone at 37° C. for 3 days, followed by collecting the culture supernatants. The collected culture supernatants were quantified for VEGF using Human VEGF DuoSet ELISA.

MCP-1 production = assay: CRS toxicity evaluation system using CAR-T cells: MCP-1; details: CRS toxicity evaluation system using CAR-T cells
Description: (§2) The supernatants were collected at 72 hours after the initiation of culture, and various cytokines in each supernatant were measured by FACS multiplex assay.

IL-8 production = assay: CRS toxicity evaluation system using CAR-T cells: IL-8; details: CRS toxicity evaluation system using CAR-T cells
Description: as §2

TNF-α production = assay: CRS toxicity evaluation system using CAR-T cells: TNF-α; details: CRS toxicity evaluation system using CAR-T cells
Description: as §2

IL-1β production = assay: CRS toxicity evaluation system using CAR-T cells: IL-1β; details: CRS toxicity evaluation system using CAR-T cells
Description: as §2

Tocilizumab: interleukin (IL)-6R antibody (tocilizumab) approved at the same time as CAR-T cell therapy
no suppressive effect: suppressive effect on OPN production [1] | suppressive effect on IL-1β production [2] | suppressive effect on IL-18 production [3] | effect on VEGF production from macrophages [4] | suppressive effect on MCP-1 production (MCP-1 production) | suppressive effect on IL-8 production (IL-8 production) | suppressive effect on TNF-α (TNF-α production) | suppressive effect on IL-1β (IL-1β production)
